# Source: the NIST ThermoML archive (doi:10.1021/je0255628)
# “And” between values parts separate entries of the source, which are not always exact repeats. Equal values may be shown once. Numbers after ± are expanded uncertainties.
# Conditions: 308.15 K; Liquid
row,Compound,vapor or sublimation pressure
1,CCOCCO [2-ethoxyethan-1-ol],1.303 ± 0.16 kPa
2,COC=O [methyl methanoate],114.88 ± 0.35 kPa

# Same assay, conditions: 313.15 K; Liquid
row,Compound,vapor or sublimation pressure
1,CCOCCO [2-ethoxyethan-1-ol],1.864 ± 0.16 kPa and 1.803 ± 0.16 kPa and 1.829 ± 0.16 kPa
2,COC(C)=O [methyl ethanoate],53.81 ± 0.24 kPa
3,CCOC(C)=O [ethyl acetate],25.08 ± 0.2 kPa
4,CCOC(=O)CC [ethyl propanoate],10.6 ± 0.17 kPa
5,CCCOC(C)=O [propyl ethanoate],9.586 ± 0.17 kPa
